Assay results: PubChem BioAssay AID248 (DTP/NCI, 2004)
Several values for one entry are separate records, joined by “and”; a condition that tells them apart may be missing. Equal values may be shown once. Toxic doses and inconclusive results are not listed.

Tested on: L1210 leukemia ip in BDF1 mice, survival T/C
Test: NCI In Vivo Anticancer Drug Screen. Data for tumor model L1210 Leukemia (intraperitoneal) in B6D2F1 (BDF1) mice
Conditions: endpoint: mean survival time, higher = longer survival
Outline: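 Each compound was tested against a transplantable tumor grown in mice. The endpoint was survival, with treated animals benchmarked against vehicle controls as a simple ratio.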

[1] = dose: 12.5 mg/kg/injection, schedule: Q01DX009 (ip), vehicle: Klucel (hydroxypropylcellulose) (HPC)
[2] = dose: 100.0 mg/kg/injection, schedule: Q01DX009 (ip), vehicle: Klucel (hydroxypropylcellulose) (HPC)
[3] = dose: 100.0 mg/kg/injection, schedule: Q01DX001 (ip), vehicle: Klucel (hydroxypropylcellulose) (HPC)
[4] = dose: 100.0 mg/kg/injection, schedule: Q04DX003 (ip), vehicle: Klucel (hydroxypropylcellulose) (HPC)
[5] = dose: 100.0 mg/kg/injection, schedule: Q04DX003 (ip), vehicle: saline with Tween-80
[6] = dose: 200.0 mg/kg/injection, schedule: Q01DX001 (ip), vehicle: Klucel (hydroxypropylcellulose) (HPC)
[7] = dose: 200.0 mg/kg/injection, schedule: Q04DX003 (ip), vehicle: Klucel (hydroxypropylcellulose) (HPC)
[8] = dose: 200.0 mg/kg/injection, schedule: Q04DX003 (ip), vehicle: saline with Tween-80
[9] = dose: 400.0 mg/kg/injection, schedule: Q01DX001 (ip), vehicle: Klucel (hydroxypropylcellulose) (HPC)
[10] = dose: 400.0 mg/kg/injection, schedule: Q04DX003 (ip), vehicle: Klucel (hydroxypropylcellulose) (HPC)
[11] = dose: 400.0 mg/kg/injection, schedule: Q04DX003 (ip), vehicle: saline with Tween-80
[12] = dose: 100.0 mg/kg/injection, schedule: Q04DX002 (ip), vehicle: Klucel (hydroxypropylcellulose) (HPC)
[13] = dose: 100.0 mg/kg/injection, schedule: Q04DX002 (ip), vehicle: saline
[14] = dose: 200.0 mg/kg/injection, schedule: Q04DX002 (ip), vehicle: saline
[15] = dose: 400.0 mg/kg/injection, schedule: Q04DX002 (ip), vehicle: saline
[16] = dose: 200.0 mg/kg/injection, schedule: Q01DX009 (ip), vehicle: Klucel (hydroxypropylcellulose) (HPC)
[17] = dose: 400.0 mg/kg/injection, schedule: Q01DX009 (ip), vehicle: Klucel (hydroxypropylcellulose) (HPC)
[18] = dose: 100.0 mg/kg/injection, schedule: Q01DX001 (ip), vehicle: carboxymethylcellulose (CMC)
[19] = dose: 200.0 mg/kg/injection, schedule: Q01DX001 (ip), vehicle: carboxymethylcellulose (CMC)
[20] = dose: 400.0 mg/kg/injection, schedule: Q01DX001 (ip), vehicle: carboxymethylcellulose (CMC)
[21] = dose: 25.0 mg/kg/injection, schedule: Q04DX002 (ip), vehicle: Klucel (hydroxypropylcellulose) (HPC)
[22] = dose: 50.0 mg/kg/injection, schedule: Q04DX002 (ip), vehicle: Klucel (hydroxypropylcellulose) (HPC)

## CC(C)S(=O)(=O)/C(Cl)=C(/Cl)C(Cl)=C(Cl)Cl
[1]
  T/C: 106 % of control
dose: 25.0 mg/kg/injection, schedule: Q01DX009 (ip), vehicle: Klucel (hydroxypropylcellulose) (HPC)
  T/C: 101 % of control
dose: 50.0 mg/kg/injection, schedule: Q01DX009 (ip), vehicle: Klucel (hydroxypropylcellulose) (HPC)
  T/C: 95 % of control
[2]
  T/C: 87 % of control

## O=C(O)C1(c2ccccc2)OC1c1ccccc1 (stereo unspecified)
[3]
  T/C: 93 % of control
[4]
  T/C: 95 % of control
[5]
  T/C: 90 % of control
[6]
  T/C: 91 % of control
[7]
  T/C: 95 % of control
[8]
  T/C: 86 % of control
[9]
  T/C: 93 % of control
[10]
  T/C: 86 % of control
[11]
  T/C: 92 % of control

## CCOC(=O)c1ccccc1C(=O)c1ccccc1
[12]
  T/C: 118 % of control
dose: 200.0 mg/kg/injection, schedule: Q04DX002 (ip), vehicle: Klucel (hydroxypropylcellulose) (HPC)
  T/C: 100 % of control
dose: 400.0 mg/kg/injection, schedule: Q04DX002 (ip), vehicle: Klucel (hydroxypropylcellulose) (HPC)
  T/C: 95 % of control

## O=C(O)C[S+]1CCSCC1
[13]
  T/C: 105 % of control
[14]
  T/C: 105 % of control
[15]
  T/C: 105 % of control

## CC(C)=NNC(=O)C1CC=CC1C(Cl)Cl (stereo unspecified)
[2]
  T/C: 96 % of control
[16]
  T/C: 98 % of control
[17]
  T/C: 93 % of control

## Nc1ncc(-c2ccc(CNc3ccc(C(=O)NC(CC(=O)O)CC(=O)O)cc3)cc2)c(N)n1
dose: 10.5 mg/kg/injection, schedule: Q01DX009 (ip), vehicle: saline
  T/C: 122 % of control
dose: 12.5 mg/kg/injection, schedule: Q01DX009 (ip), vehicle: saline
  T/C: 114 % of control
dose: 14.5 mg/kg/injection, schedule: Q01DX009 (ip), vehicle: saline
  T/C: 116 % of control
dose: 18.0 mg/kg/injection, schedule: Q01DX009 (ip), vehicle: saline
  T/C: 114 % of control
dose: 22.0 mg/kg/injection, schedule: Q01DX009 (ip), vehicle: saline
  T/C: 116 % of control
dose: 50.0 mg/kg/injection, schedule: Q01DX009 (ip), vehicle: saline
  T/C: 165 % of control and 185 % of control
dose: 66.0 mg/kg/injection, schedule: Q01DX001 (ip), vehicle: saline
  T/C: 122 % of control
dose: 75.0 mg/kg/injection, schedule: Q01DX001 (ip), vehicle: saline
  T/C: 112 % of control and 119 % of control
dose: 75.0 mg/kg/injection, schedule: Q01DX009 (ip), vehicle: saline
  T/C: 107 % of control
dose: 150.0 mg/kg/injection, schedule: Q01DX001 (ip), vehicle: saline
  T/C: 115 % of control

## CCOC(=O)Nc1ccc(SC)cc1
dose: 100.0 mg/kg/injection, schedule: Q01DX009 (ip), vehicle: saline
  T/C: 94 % of control
dose: 200.0 mg/kg/injection, schedule: Q01DX009 (ip), vehicle: saline
  T/C: 100 % of control
dose: 400.0 mg/kg/injection, schedule: Q01DX009 (ip), vehicle: saline
  T/C: 103 % of control

## CC1C2C(=O)C3(C(C)C(=O)O)CCC2(C)C3CC12OCCO2 (stereo unspecified)
[3]
  T/C: 95 % of control
[6]
  T/C: 108 % of control
[9]
  T/C: 97 % of control

## O=C(CCCC(=O)N/N=C/c1c[nH]c2ccc(Br)cc12)N/N=C\c1c[nH]c2ccc(Br)cc12
dose: 50.0 mg/kg/injection, schedule: Q01DX001 (ip), vehicle: saline
  T/C: 105 % of control
dose: 100.0 mg/kg/injection, schedule: Q01DX001 (ip), vehicle: saline
  T/C: 102 % of control
dose: 200.0 mg/kg/injection, schedule: Q01DX001 (ip), vehicle: saline
  T/C: 107 % of control
dose: 400.0 mg/kg/injection, schedule: Q01DX001 (ip), vehicle: saline
  T/C: 96 % of control

## COc1cc(C(=O)N(C)OC)cc(OC)c1OC
[18]
  T/C: 96 % of control
[19]
  T/C: 91 % of control
[20]
  T/C: 100 % of control

## COC(=O)C[P+](c1ccccc1)(c1ccccc1)c1ccccc1
dose: 15.0 mg/kg/injection, schedule: Q01DX001 (ip), vehicle: saline
  T/C: 93 % of control
dose: 30.0 mg/kg/injection, schedule: Q01DX001 (ip), vehicle: saline
  T/C: 89 % of control
dose: 60.0 mg/kg/injection, schedule: Q01DX001 (ip), vehicle: saline
  T/C: 86 % of control

## COc1ccc(C2CCc3cc4c(cc3/C2=N/OC(C)=O)OCO4)cc1OC (stereo unspecified)
[2]
  T/C: 105 % of control
[4]
  T/C: 102 % of control
[16]
  T/C: 97 % of control
[7]
  T/C: 101 % of control
[17]
  T/C: 92 % of control
[10]
  T/C: 101 % of control

## C[Si](C)(C)OCCCCCCCl
dose: 50.0 mg/kg/injection, schedule: Q01DX001 (ip), vehicle: carboxymethylcellulose (CMC)
  T/C: 108 % of control
[18]
  T/C: 101 % of control
[19]
  T/C: 95 % of control
[20]
  T/C: 103 % of control

## CC[N+](C)(CC)CCSC(=O)Nc1ccc(Cc2ccc(NC(=O)SCC[N+](C)(CC)CC)cc2)cc1
dose: 10.0 mg/kg/injection, schedule: Q04DX003 (ip), vehicle: Klucel (hydroxypropylcellulose) (HPC)
  T/C: 96 % of control
[1]
  T/C: 103 % of control
dose: 20.0 mg/kg/injection, schedule: Q04DX003 (ip), vehicle: Klucel (hydroxypropylcellulose) (HPC)
  T/C: 96 % of control

## CCCCO.CCCCO.Cl.[O]=[V]
dose: 4.0 mg/kg/injection, schedule: Q01DX015 (ip), vehicle: other
  T/C: 97 % of control
dose: 8.0 mg/kg/injection, schedule: Q01DX015 (ip), vehicle: other
  T/C: 97 % of control
dose: 16.0 mg/kg/injection, schedule: Q01DX015 (ip), vehicle: other
  T/C: 96 % of control
dose: 32.0 mg/kg/injection, schedule: Q01DX015 (ip), vehicle: other
  T/C: 108 % of control

## CC(=O)/C=C(/C(=O)c1ccccc1)c1ccccc1
dose: 100.0 mg/kg/injection, schedule: Q01DX001 (ip), vehicle: saline with Tween-80
  T/C: 93 % of control
dose: 200.0 mg/kg/injection, schedule: Q01DX001 (ip), vehicle: saline with Tween-80
  T/C: 98 % of control
dose: 400.0 mg/kg/injection, schedule: Q01DX001 (ip), vehicle: saline with Tween-80
  T/C: 97 % of control

## CCOC(=O)CNc1ccc(C)c(F)c1
[21]
  T/C: 98 % of control
[22]
  T/C: 98 % of control
[12]
  T/C: 97 % of control and 109 % of control

## OC(/C=C/c1ccccc1)CC(O)(C(F)(F)F)C(F)(F)F (stereo unspecified)
[5]
  T/C: 103 % of control
[8]
  T/C: 110 % of control
[11]
  T/C: 110 % of control

## N#Cc1c[nH]n2c(=S)ncnc12
dose: 100.0 mg/kg/injection, schedule: Q01DX009 (ip), vehicle: saline with Tween-80
  T/C: 105 % of control
dose: 200.0 mg/kg/injection, schedule: Q01DX009 (ip), vehicle: saline with Tween-80
  T/C: 101 % of control

## O=C(CCCN1CCC2(CC1)OC(=O)N(c1ccccc1)C2=O)c1ccc(F)cc1
[4]
  T/C: 89 % of control
[7]
  T/C: 106 % of control

## O=C1c2cc(Br)cc(Br)c2NCCCC1(Br)Br
[4]
  T/C: 94 % of control
[7]
  T/C: 97 % of control
[10]
  T/C: 94 % of control

## CS(=O)(=O)Nc1ccc(C(=O)O)cc1
[2]
  T/C: 97 % of control
[4]
  T/C: 100 % of control
[16]
  T/C: 98 % of control
[7]
  T/C: 107 % of control
[17]
  T/C: 98 % of control
[10]
  T/C: 105 % of control

## FC(F)(F)c1ccc(C=C2c3ccccc3-c3ccccc32)cc1
dose: 12.5 mg/kg/injection, schedule: Q04DX002 (ip), vehicle: Klucel (hydroxypropylcellulose) (HPC)
  T/C: 92 % of control
[21]
  T/C: 92 % of control
[22]
  T/C: 92 % of control

## O=COC1CC2CCC1C2 (stereo unspecified)
[13]
  T/C: 95 % of control
[14]
  T/C: 98 % of control
[15]
  T/C: 100 % of control

## Cc1noc(N)c1C#N
dose: 100.0 mg/kg/injection, schedule: Q04DX002 (ip), vehicle: saline with Tween-80
  T/C: 100 % of control
dose: 200.0 mg/kg/injection, schedule: Q04DX002 (ip), vehicle: saline with Tween-80
  T/C: 95 % of control
dose: 400.0 mg/kg/injection, schedule: Q04DX002 (ip), vehicle: saline with Tween-80
  T/C: 89 % of control
